Where “and” joins values, the source holds several entries; their conditions need not be identical. Equal entries are not always repeated.
test system: DLD-1 KLF5 promoter-luciferase reporter, luminescence; experiment: potency of KLF5 luciferase signal suppressors – luminescence, DLD-1 cells, powder samples, late-stage follow-up (AID 2750);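 active = compounds whose IC50 against KLF5 promoter reporter light is 10 micromolar or lower; inactive = the rest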

IC50, active:
O=C(NCCc1ccccc1)c1ccc2c(c1)OCCCO2 217 nM
O=C(NCCc1ccccc1F)c1ccc2c(c1)OCCO2 162 nM
CC(C)(C)c1ccc(C(=O)O/N=C(\N)c2ccccn2)cc1 595 nM
Cc1cc(C(=O)CN2C(=O)c3ccccc3S2(=O)=O)c(C)n1CC1CCCO1 (stereo unspecified) 67.6 nM
COc1ccc(C(=O)Nc2ccccc2C(=O)NN=Cc2ccc(O)c(OC)c2)cc1 11.3 nM
COc1ccc(OCc2cccc(C(=O)Nn3cc([N+](=O)[O-])cn3)c2)cc1 357 nM
CCCc1ccc(-c2ccc(/C=C/C(=O)O)cc2)nc1 75.2 nM
CCOC(=O)c1sc(NC(=O)c2cc3c(s2)CCC(C)C3)nc1C (stereo unspecified) 20.1 nM
CN(C(=O)COC(=O)/C=C/c1cccc([N+](=O)[O-])c1)C1CCS(=O)(=O)C1 (stereo unspecified) 603 nM
CC(C)(C)c1ccc(-c2noc(CCC(=O)Nc3cccnc3)n2)cc1 71.8 nM and 57.2 nM
Cc1ccc2nc(NC(=O)CCCc3nc4ccccc4s3)sc2c1 180 nM
CCCc1ccc(C(=O)O/N=C(\N)c2ccccn2)cc1 132 nM
CCOC(=O)c1sc(NC(=O)c2ccc3ncsc3c2)nc1C 22.1 nM and 18.7 nM
COc1cccc(C=NNc2ccc(C(=O)O)cc2)c1O 10.4 nM
c1ccc(-c2ccc(-c3nc(-c4ccccn4)no3)cc2)cc1 285 nM
CN1CCN(c2ccc(-c3ccc4ccccc4n3)cc2)CC1 27.1 nM
